The experiment has as its target T1, LmxPP2C (Leishmania mexicana, UniProt E9AXF3).
T1 construct: gene LMXM_25_0750
T1 sequence (E9AXF3 1-406): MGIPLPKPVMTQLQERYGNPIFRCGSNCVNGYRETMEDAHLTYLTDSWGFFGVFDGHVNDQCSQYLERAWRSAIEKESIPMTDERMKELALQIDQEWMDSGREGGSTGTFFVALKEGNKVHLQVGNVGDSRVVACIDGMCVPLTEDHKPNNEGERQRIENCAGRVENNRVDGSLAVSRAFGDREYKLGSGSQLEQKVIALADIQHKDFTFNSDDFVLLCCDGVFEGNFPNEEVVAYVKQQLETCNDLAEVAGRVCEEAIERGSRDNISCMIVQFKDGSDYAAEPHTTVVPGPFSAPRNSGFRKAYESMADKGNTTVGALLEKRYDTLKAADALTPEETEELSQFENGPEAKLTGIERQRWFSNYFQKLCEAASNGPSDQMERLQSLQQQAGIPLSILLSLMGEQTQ
Briefly: phosphatase inhibition assay, p-NPP hydrolysis at […] nm. The format is biochemical.

Each structure is given as a SMILES string.

Among the data in publication PMC8082450, “Protein Serine/Threonine Phosphatase Type 2C of Leishmania mexicana” (Frontiers in Cellular and Infection Microbiology, 2021) are inhibition values, retold here.

For orientation: inhibition means the drop in the measured response relative to a control, in per cent.

Regarding `COC[C@@H]([C@H](O)[C@H](O)C(=O)NCC[C@H](C)c1nc(/C=C/C[C@@H]2O[C@]3(C[C@@H](O)[C@@H]2C)O[C@H]([C@H](C[C@H](O)[C@H](C)[C@H](O)[C@H](C)/C=C(C)/C(C)=C/C=C/C(C)=C\C#N)OC)[C@H](OP(=O)(O)O)C3(C)C)co1)N(C)C` [calyculin], the inhibition at 0.005 µM (read-out: % inhibition at 5 nM) was determined as 18%.

For the compound `C=C1[C@@H](O)[C@@H]2O[C@]3(CC[C@H](/C=C/[C@@H](C)[C@@H]4CC(C)=C[C@@]5(O[C@H](C[C@@](C)(O)C(=O)O)CC[C@H]5O)O4)O3)CC[C@H]2O[C@@H]1[C@@H](O)C[C@H](C)[C@H]1O[C@@]2(CCCCO2)CC[C@H]1C` [okadaic acid], the inhibition at 1 µM (read-out: % inhibition at 1 μM) worked out at 14%.

`C[n+]1cc2c3c(ccc2c2ccc4cc5c(cc4c21)OCO5)OCO3` [sanguinarine] had an inhibition at 20 µM of 81%.
